Read-outs that look alike come from different tables or passages of the source.
Experiments:
[1] = biological target: T1, Serotonin 5-HT2B receptor (Homo sapiens, UniProt P41595); assay: IPOne HTRF assay, agonist and antagonist mode; type: cell-based
T1 construct: expressed in transfected cells; host or cells: CHO-K1
Experimental: Antagonist and agonist activities were determined using an IPOne […] HTRF assay. The assay was prepared as follows: CHO-K1 cells expressing human recombinant Adrenergic α1A, Serotonin 5-HT2A, and 5-HT2B receptors grown to mid-log phase in culture media without antibiotics were detached with PBS-EDTA, centrifuged and resuspended in medium without antibiotics buffer. 20,000 cells were distributed in a 96 well plate and incubated overnight at 37° C. with 5% CO2.
To analyze agonist activity, the medium was removed and 20 μl of assay buffer plus 20 μl of test compound or reference agonist were added in each well. The plate was incubated for 60 min. at 37° C. with 5% CO2. EC50 values were used to determine whether a compound acted as an agonist.
To analyze antagonist activity, 20 μl of test compound or reference antagonist was added and the plate is incubated for 15 min. at 37° C. in a humidified atmosphere of 95% air with 5% CO2, then 20 μl of reference agonist at a final concentration corresponding to the historical EC80 is added. The plate is incubated for 60 min. at 37° C. with 5% CO2. IP1-D2 reagent and anti-IP1 cryptate reagents are then dispensed in the wells and IP1 concentrations are then measured following the manufacturer recommendations. IC50 values were used to determine whether a compound acted as an antagonist.

[2] = biological target: Serotonin 5-HT1D receptor (Homo sapiens, UniProt P28221); assay: GTPγS Scintillation Proximity Assay, agonist and antagonist mode; type: biochemical
Experimental: Antagonist and agonist activities were determined using a GTPγS Scintillation Proximity Assay. The assay was prepared as follows: Membrane extracts were prepared from recombinant human Dopamine D2L, D3; Serotonin 5-HT1A, 5-HT1B, 5-HT1D and 5-HT1F receptors.
Samples were tested by proprietary biological assays by Ogeda S. A., Euroscreen FAST Business Unit, Rue Adrienne Bolland, 47 B-6041 Gosselies, Belgium. Each protein assay was prepared using the following conditions.
5-HT1D • Assay buffer: 20 mM HEPES pH 7.4; 200 mM NaCl, 10 μg/ml saponin, 3 mM MgCl2; • Membranes: recombinant 5-HT1D membrane extracts thawed on ice and diluted in assay buffer to give […] and kept on ice; • GDP: diluted in assay buffer to give a 30 μM working solution (3 μM final concentration); • Beads: PVT-WGA (Perkin Elmer, RPNQ001), diluted in assay buffer at 50 mg/ml (0.5 mg/10 μl); and • GTPγ^35S: (PerkinElmer NEG030X), diluted in assay buffer to give 0.1 nM.
Membranes were mixed with GDP (volume:volume 1:1) and incubated for at least 15 min on ice. In parallel, GTPγ[^35S] is mixed with the beads (volume:volume 1:1) just before starting the reaction.
To determine agonist activity, the following reagents were added in the wells of an Optiplate (Perkin Elmer): 50 μL of test or reference ligand, 10 μL of assay buffer, 20 μl of the membranes:GDP mix, and 20 μL of the GTPγ[^35S]:beads mix. EC50 values were used to determine whether a compound acted as an agonist.
To determine antagonist activity, the following reagents were added in the wells of an Optiplate (Perkin Elmer): 50 μL of test or reference ligand, 20 μL of the membranes:GDP mix, then the plate is incubated 15 minutes at room temperature. After incubation, 10 μL of reference agonist at historical EC80 (final concentration) was added, followed by 20 μL of the GTPγ[^35S]:beads mix.
The plates were covered with a top seal, mixed on an orbital shaker for 2 min, and then incubated for 1 hour at room temperature. Then the plates were centrifuged for 10 min at 2000 rpm, incubated at room temperature 1 hour and counted for 1 min/well with a PerkinElmer TopCount reader. IC50 values were used to determine whether a compound acted as an antagonist.

Serotonin 5-HT1D receptor, sequence (P28221 whole entry): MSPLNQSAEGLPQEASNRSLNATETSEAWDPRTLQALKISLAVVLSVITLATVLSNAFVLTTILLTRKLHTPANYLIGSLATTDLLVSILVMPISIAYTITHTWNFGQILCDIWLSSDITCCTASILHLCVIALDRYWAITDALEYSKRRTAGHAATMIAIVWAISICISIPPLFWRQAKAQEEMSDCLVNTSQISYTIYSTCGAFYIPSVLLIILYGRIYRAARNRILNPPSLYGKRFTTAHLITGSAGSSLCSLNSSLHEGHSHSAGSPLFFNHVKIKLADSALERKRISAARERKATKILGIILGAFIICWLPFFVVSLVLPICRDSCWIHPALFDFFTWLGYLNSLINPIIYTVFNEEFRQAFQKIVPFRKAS
T1 sequence (P41595 whole entry): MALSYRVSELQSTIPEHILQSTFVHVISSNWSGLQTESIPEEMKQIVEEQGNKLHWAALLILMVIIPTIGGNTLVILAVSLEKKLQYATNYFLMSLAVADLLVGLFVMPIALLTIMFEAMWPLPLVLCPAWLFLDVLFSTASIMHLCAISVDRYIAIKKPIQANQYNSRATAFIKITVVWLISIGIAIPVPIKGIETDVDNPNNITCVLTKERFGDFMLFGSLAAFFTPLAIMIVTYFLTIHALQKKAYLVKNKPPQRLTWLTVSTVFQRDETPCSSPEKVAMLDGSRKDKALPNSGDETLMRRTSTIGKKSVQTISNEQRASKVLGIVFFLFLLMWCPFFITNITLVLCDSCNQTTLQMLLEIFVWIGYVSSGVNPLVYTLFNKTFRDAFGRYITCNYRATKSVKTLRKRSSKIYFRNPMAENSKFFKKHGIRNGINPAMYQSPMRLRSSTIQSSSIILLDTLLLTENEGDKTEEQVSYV

CC[C@@H](CO)NC(=O)[C@@H]1C=C2c3cccc4c3c(c(C3CC3)n4C)C[C@H]2N(C)C1 [Compound D13, (6aR,9R)-5-cyclopropyl-N—((S)-1-hydroxybutan-2-yl)-4,7-dimethyl-4,6,6a,7,8,9-hexahydroindolo[4,3-fg]quinoline-9-carboxamide]
IC50 ([1]; CHO-K1 cells, vs reference agonist at EC80, read-out: Antagonist Activity (IC50), 5-HT2B): 140 nM
IC50 ([1]; antagonist mode, bound stated, read-out: IC50 value for the Serotonin 5-HT2B receptor): < 1000 nM
EC50 ([2]; Agonist Activity (EC50), 5-HT1D, membrane extracts): 730 nM
EC50 ([2]; EC50 value for the Serotonin 5-HT1D receptor, agonist mode, bound stated): < 1000 nM
